Here are results for 14 compounds from PubChem BioAssay (NCI).

Holding throughout (test): NCI tumour cell line growth inhibition, 48 h
The test system of test [1] is M14 melanoma.
Test [2] has as its system UACC-62 melanoma.
Test [3] concerns SW-620 colon.
For test [4], the system named is HCT-116 colon.
For test [5], the system named is 786-0 renal.
The subject of test [6] is U251 CNS.
The test system of test [7] is UO-31 renal.
The subject of test [8] is COLO 205 colon.
Test [9] relates to HOP-92 NSCLC.

Molecules are shown by their SMILES.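 Compound exposure: 48 hours, 5 concentrations, 96-well plates. At the GI50, growth is halved. TGI denotes the concentration required for complete inhibition of growth.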 Some results are limits rather than exact numbers.

As to `FC1=C2C3CCC(C3)C2C1(F)F` (centres undefined), the TGI in test [1], in test [2], in test [3], in test [4], in test [5] and in test [6] was over 100 µM throughout. Also, the TGI in test [7] and in test [8] was over 100 µM each time.
`C=C1CCC[C@@H](C)C(O)[C@@H]2OC(=O)C(=C)[C@@H]2C[C@@H](OC(C)=O)[C@@]2(C)CC[C@@H]1O2` (some centres undefined): the TGI in [1] worked out at 13.6 µM; in [9], 15 µM; in test [2], 11.7 µM; in test [3] it was 16.7 µM; in [4], 13.8 µM; in [5], 20.1 µM. The TGI in [6] is 17.8 µM; in test [7], 15.3 µM; in test [8], 13.4 µM.
Take `N#Cc1nc(CCc2nc(C#N)c(N)o2)oc1N`: the TGI in [1], in [9], in test [2], in [3], in test [4] and in [5] was over 10 µM throughout. Further, the TGI in test [7] and in test [8] was over 10 µM throughout.
As for `COc1cc2c(cc1O)C1Cc3ccc(OC)c(O)c3C[N+]1(C)CC2` (centres undefined), the TGI in test [1], in test [9], in test [2], in test [3], in test [4] and in test [5] was over 100 µM each time. Further, the TGI in test [6], in test [7] and in test [8] was over 100 µM each time.
Take `CC1=C(C)C(=O)C(C2=CC(=O)c3ccccc3C2=O)=C(C2=CC(=O)c3ccccc3C2=O)C1=O`: the TGI in test [1] is over 40.8 µM; in [9], over 83.3 µM; in test [2], 27.6 µM; in test [3], over 33.9 µM; in test [4] it was over 100 µM; in [5] it was over 58.1 µM. Moreover, the TGI was over 45.3 µM in test [6], 25.4 µM in [7] and 9.77 µM in [8].
In the case of `COc1ccc(CCNC(=O)Cc2ccccc2CO)cc1OC`, the TGI in test [1], in [9], in test [2], in [3], in test [4] and in test [5] was over 100 µM throughout. Moreover, the TGI in test [6], in test [7] and in test [8] was over 100 µM in each case.
For the compound `Oc1ccc(C(O)C2CCCCN2)cc1O` (centres undefined), the TGI in test [1] is over 100 µM; in test [9], over 100 µM; in test [2], over 100 µM; in test [3], over 100 µM; in test [4], over 100 µM; in [5], 35.2 µM. The TGI in test [6], in [7] and in test [8] was over 100 µM in each case.
As for `N#Cc1c(-c2ccc([N+](=O)[O-])cc2)c(C#N)c(=O)n(NS(=O)(=O)c2ccccc2)c1S`, the TGI is over 100 µM in test [1]; over 100 µM in test [9]; 60.3 µM in test [2]; 45.7 µM in test [3]; 39.8 µM in test [4]; over 100 µM in test [5]. Moreover, the TGI in test [6] and in test [8] was over 100 µM throughout.
For `C=C(NC(=O)C(=C)NC(=O)c1ccc2c(n1)-c1coc(n1)C(=C)NC(=O)C(=C)NC(=O)c1nc(oc1C)C(=C)NC(=O)C(C(C)(C)O)NC(=O)C(=C)NC(=O)c1coc(n1)/C(=C/C)NC(=O)[C@H]([C@@H](C)O)NC(=O)c1csc-2n1)C(N)=O` (some centres undefined), the TGI in [1], in [9], in test [3], in [4], in test [5] and in test [6] was over 87.5 µM each time. Further, the TGI in [7] and in test [8] was over 87.5 µM each time.
As for `CCOC(=O)NC(=S)N(CC(=O)c1cc(OC)c(OC)c(OC)c1)c1ccc(Cl)cc1`, the GI50 in test [1] was 36.7 µM; in test [9], 38.9 µM; in test [2] it was 55.2 µM; in test [3], over 100 µM; in test [4], 72.3 µM; in test [6], 99.7 µM. Further, the GI50 in [7] is 48.9 µM; in [8], over 100 µM. Further, the TGI in test [1], in test [9], in test [2], in test [3], in test [4] and in test [6] was over 100 µM in each case. The TGI in [7] and in [8] was over 100 µM in each case.
With `C=C(C)C1CC(=O)C(C)=C(O)C1` (centres undefined), the TGI in test [1], in test [2], in test [3], in [4], in test [5] and in [6] was over 100 µM each time. Besides, the TGI in test [7] and in [8] was over 100 µM each time.
`C=C(Br)CN=CN(C)C`: the TGI in [1], in test [9], in test [2], in [4], in test [5] and in test [6] was over 100 µM throughout. Besides, the TGI in [7] and in [8] was over 100 µM throughout.
With `O=C(O)c1c(CC(Cc2ccc3c(c2)CCC3)C(=O)O)ccc2c1CCC2` (centres undefined), the TGI in test [1], in [9], in test [3], in test [4], in test [5] and in test [6] was over 100 µM each time. Besides, the TGI in test [7] and in test [8] was over 100 µM in each case.
`COC(=O)c1c2c(cc3c1CC1(Cc4cc5c(c(C=O)c4C1)CCC5)C3)CCC2` (centres undefined): the TGI is 75.6 µM in test [1]; 60.7 µM in test [9]; over 100 µM in test [3]; 60 µM in [4]; over 100 µM in test [5]; 57.3 µM in test [6]. In test [7], this compound yielded a TGI of 71.8 µM.
